Results from article PMC3632285 (Journal of controlled release : official journal of the …, 2013).

Legend:
[1] = test system: human airway epithelial cells (Calu-3); experiment: MTT cytotoxicity study in Calu-3 cells; format: cell-based; settings: 0.1% w/v, positive control, cell line not specified in the sentence (Fig. 6A)
[2] = test system: monocrotaline (MCT)-induced PAH rats; experiment: Hemodynamic studies in monocrotaline; format: in vivo, Sprague-Dawley rats; settings: 3 mg/kg
PAH patients = settings: dose of 30 or 40 mg; cited from earlier work
[3] = In-vitro drug release in dialysis cassettes, PBS pH 7.4, 37°C; format: physicochemical; settings: plain drug control in dialysis cassette, data not shown
in vivo = settings: male, Sprague-Dawley, rat, 10 mg/kg
[4] = various storage conditions; cited from earlier work
[5] = cited from earlier work

Row | Compound | Cell viability [1] [%] | Decrease in MPAP (maximal) ([2]; intratracheal) [%] | Reduction in MSAP ([2]; intratracheal) [%] | Decrease in MPAP (maximal) ([2]; intravenous) [%] | Duration of pulmonary vasodilatory effects (15% reduction in MPAP as baseline) ([2]; intravenous) [min] | Reduction in MSAP ([2]; intravenous) [%] | Duration of pulmonary vasodilatory effects (15% reduction in MPAP as baseline) ([2]; pulmonary (intratracheal)) [min] | Effect on MPAP in PAH patients (PAH patients) | Drug released in the media [3] [%] | bioavailability (in vivo; Bioavailability (relative)) [%] | AUC(0-t) (in vivo; inhaled or intranasal) [ng·h/mL] | Cmax (in vivo; inhaled or intranasal) [ng/mL] | AUC(0-t) (in vivo; iv) [ng·h/mL] | Cmax (in vivo; iv) [ng/mL] | Time over which the drug is stable [4] | pKa [5]
1 | CCCCCCCCCCCCOS(=O)(=O)[O-].[Na+] [SDS, sodium dodecyl sulfate] | 15 | – | – | – | – | – | – | – | – | – | – | – | – | – | – | –
2 | O=S(=O)(c1cccc2cnccc12)N1CCCNCC1 [fasudil] | – | 38.3±7.3 | 38.1±10.8 | 45.6±17.0 | 50.0 ± 10.4 | 45.6±8.4 | 60.0 ± 15.3 | effective in reducing MPAP | 100 | ~40 | 2.33 | 66.2 ± 13.6 | 5.71 | 298 ± 10 | ~ 24 weeks | 9.727
